According to patent US8168592B2 (Amgen Inc., priority 2005, dated 2012):
Bridge positions count the residues as written; N and C are the ends. Square brackets hold non-standard residues; d marks the D form. Peptide text beside a SMILES is read from it. Oic = O=C(O)[C@@H]1C[C@@H]2CCCC[C@@H]2N1; 2Nal = N[C@@H](Cc1ccc2ccccc2c1)C(=O)O; hArg = N=C(N)NCCCC[C@H](N)C(=O)O; Tic = O=C(O)[C@@H]1Cc2ccccc2CN1; Cit = NC(=O)NCCC[C@H](N)C(=O)O; PEG = not defined here

Molecular target: T1, CGRP1 receptor (Homo sapiens, UniProt O60894+Q16602)
T1 construct: SK-N-MC cells express CRLR and RAMP1, which form CGRP1 receptor; endogenous in cells; host or cells: SK-N-MC human neuroblastoma cells
Assay: in vitro CGRP1 receptor mediated cAMP assay in SK-N-MC cells
Assay type: cell-based
Conditions: not given
Summary of the method: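 Human SK-N-MC neuroblastoma cells, which endogenously express CRLR/RAMP1, were plated two days before assay and preincubated in plasma-free medium for 15 minutes at room temperature. Cells were then lysed for 30 minutes at 37° C, and cAMP in the lysates was quantified by competitive cAMP-AP chemiluminescent ELISA.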

T1 sequence (Q16602 23-461): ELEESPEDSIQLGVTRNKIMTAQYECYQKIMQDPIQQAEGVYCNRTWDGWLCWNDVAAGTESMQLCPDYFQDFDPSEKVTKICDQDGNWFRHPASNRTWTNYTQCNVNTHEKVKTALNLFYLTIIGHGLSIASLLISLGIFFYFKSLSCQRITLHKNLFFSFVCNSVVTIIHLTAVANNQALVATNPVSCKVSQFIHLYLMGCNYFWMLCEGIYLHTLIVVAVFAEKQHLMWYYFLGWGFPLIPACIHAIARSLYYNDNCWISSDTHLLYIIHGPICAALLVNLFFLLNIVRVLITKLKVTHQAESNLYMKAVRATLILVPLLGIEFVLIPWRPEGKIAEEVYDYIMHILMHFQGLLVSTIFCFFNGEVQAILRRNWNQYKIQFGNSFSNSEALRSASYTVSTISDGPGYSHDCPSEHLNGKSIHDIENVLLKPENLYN
T1 sequence (O60894 27-148): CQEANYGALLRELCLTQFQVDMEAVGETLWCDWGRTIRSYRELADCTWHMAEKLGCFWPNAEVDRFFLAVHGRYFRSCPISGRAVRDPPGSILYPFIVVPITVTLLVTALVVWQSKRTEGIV

Compound | antagonist activity in cAMP assay, in words
SEQ ID NO:21 (WVTHXLAGLLSRSGGVVRKNFVPTDVGPFAF; CGRP peptide; MOD_RES (1)..(1): …ON; MISC_FEATURE (5)..(5): xaa=homoarginine; MOD_RES (31)..(31): AMIDATION) | well tolerated
SEQ ID NO:14 (Ac-WVTHRLAGLLSRSGGVVC(PEG)NNFVPTDVGPFAF-NH2; reading uncertain) | little effect on the antagonist activity of the parent peptide
SEQ ID NO:28 (WVTHXLAGLLSRSGGVVRKNFVPTDVGPFAF; CGRP peptide; MOD_RES (1)..(1): …ON; MISC_FEATURE (5)..(5): xaa=citrulline; MISC_FEATURE (19)..(19): PEGylated; MOD_RES (31)..(31): AMIDATION) | relatively minor loss of in vitro antagonist activity
SEQ ID NO:9 (Ac-WVTHRLAGLLSRSGGVVCNNFVPTDVGPFAF-NH2) | somewhat less active

Same assay, conditions: IC50, Table 2A

Compound | IC50
CC(=O)N[C@@H](Cc1c[nH]c2ccccc12)C(=O)N[C@H](C(=O)N[C@H]1CCC(=O)NCCCC[C@@H](C(=O)NCC(=O)N[C@@H](CC(C)C)C(=O)N[C@@H](CC(C)C)C(=O)N[C@@H](CO)C(=O)N[C@@H](CCCNC(N)=O)C(=O)N[C@@H](CO)C(=O)NCC(=O)NCC(=O)N[C@H](C(=O)N[C@H](C(=O)N[C@@H](CCCCNC(=N)N)C(=O)N[C@@H](CCCCN)C(=O)N[C@@H](CC(N)=O)C(=O)N[C@@H](Cc2ccccc2)C(=O)N[C@H](C(=O)N2CCC[C@H]2C(=O)N[C@H](C(=O)N[C@@H](CC(=O)O)C(=O)N[C@H](C(=O)NCC(=O)N2CCC[C@H]2C(=O)N[C@@H](Cc2ccccc2)C(=O)N[C@@H](C)C(=O)N[C@@H](Cc2ccccc2)C(N)=O)C(C)C)[C@@H](C)O)C(C)C)C(C)C)C(C)C)NC(=O)[C@H](CC(C)C)NC(=O)[C@H](CCCNC(=N)N)NC(=O)[C@H](Cc2c[nH]cn2)NC1=O)C(C)C [compound 663] (Ac-WVEHRLKGLLS[Cit]SGGVV[hArg]KNFVPTDVGPFAF-NH2; lactam 3-7) | 1.22 to 2.06 nM

Same assay, conditions: Table 2A; read-out: IC50

IC50 | Compound
> 1000 nM | CC(=O)N[C@@H](Cc1c[nH]c2ccccc12)C(=O)N[C@H](C(=O)N[C@H](C(=O)N[C@@H](Cc1c[nH]cn1)C(=O)N[C@@H](CCCNC(N)=O)C(=O)N[C@@H](CC(C)C)C(=O)N[C@@H](C)C(=O)NCC(=O)N[C@@H](CC(C)C)C(=O)N[C@@H](CC(C)C)C(=O)N[C@@H](CO)C(=O)N[C@@H](CCCNC(N)=O)C(=O)N[C@@H](CO)C(=O)NCC(=O)NCC(=O)N[C@H](C(=O)N[C@H](C(=O)N[C@@H](CCCCNC(=N)N)C(=O)N[C@@H](CCCCN)C(=O)N[C@@H](CC(N)=O)C(=O)N[C@@H](Cc1ccccc1)C(=O)N[C@H](C(=O)N1CCC[C@H]1C(=O)N[C@H](C(=O)N[C@@H](CC(=O)O)C(=O)N[C@H](C(=O)NCC(=O)N1[C@H](C(=O)N[C@@H](Cc2ccccc2)C(=O)N[C@@H](C)C(N)=O)C[C@@H]2CCCC[C@@H]21)C(C)C)[C@@H](C)O)C(C)C)C(C)C)C(C)C)[C@@H](C)O)C(C)C [compound 659] (Ac-WVTH[Cit]LAGLLS[Cit]SGGVV[hArg]KNFVPTDVG[Oic]FA-NH2)
10.1 nM | CC(=O)N[C@@H](Cc1c[nH]c2ccccc12)C(=O)N[C@H](C(=O)N[C@H](C(=O)N[C@@H](Cc1c[nH]cn1)C(=O)N[C@@H](CCCNC(N)=O)C(=O)N[C@@H](CC(C)C)C(=O)N[C@@H](C)C(=O)NCC(=O)N[C@@H](CC(C)C)C(=O)N[C@@H](CC(C)C)C(=O)N[C@@H](CO)C(=O)N[C@@H](CCCNC(N)=O)C(=O)N[C@@H](CO)C(=O)NCC(=O)NCC(=O)N[C@H](C(=O)N[C@H](C(=O)N[C@@H](CCCNC(=N)N)C(=O)N[C@@H](CCCCN)C(=O)N[C@@H](CC(N)=O)C(=O)N[C@@H](Cc1ccccc1)C(=O)N[C@H](C(=O)N1CCC[C@H]1C(=O)N[C@H](C(=O)N[C@@H](CC(=O)O)C(=O)N[C@H](C(=O)NCC(=O)N1CCC[C@H]1C(=O)N1Cc2ccccc2C[C@H]1C(=O)N[C@@H](C)C(=O)N[C@@H](Cc1ccccc1)C(N)=O)C(C)C)[C@@H](C)O)C(C)C)C(C)C)C(C)C)[C@@H](C)O)C(C)C [compound 146] (Ac-WVTH[Cit]LAGLLS[Cit]SGGVVRKNFVPTDVGP[Tic]AF-NH2)
2.57 nM | CC(=O)N[C@@H](Cc1c[nH]c2ccccc12)C(=O)N[C@H](C(=O)N[C@H](C(=O)N[C@@H](Cc1c[nH]cn1)C(=O)N[C@@H](CCCNC(N)=O)C(=O)N[C@@H](CC(C)C)C(=O)N[C@@H](C)C(=O)NCC(=O)N[C@@H](CC(C)C)C(=O)N[C@@H](CC(C)C)C(=O)N[C@@H](CO)C(=O)N[C@@H](CCCNC(N)=O)C(=O)N[C@@H](CO)C(=O)NCC(=O)NCC(=O)N[C@H](C(=O)N[C@H](C(=O)N[C@@H](CCCCNC(=N)N)C(=O)N[C@@H](CCCCN)C(=O)N[C@@H](CC(N)=O)C(=O)N[C@@H](Cc1ccccc1)C(=O)N[C@H](C(=O)N1[C@H](C(=O)N[C@H](C(=O)N[C@@H](CC(=O)O)C(=O)N[C@H](C(=O)NCC(=O)N2[C@H](C(=O)N[C@@H](Cc3ccccc3)C(=O)N[C@@H](C)C(=O)N[C@@H](Cc3ccc4ccccc4c3)C(N)=O)C[C@@H]3CCCC[C@@H]32)C(C)C)[C@@H](C)O)C[C@@H]2CCCC[C@@H]21)C(C)C)C(C)C)C(C)C)[C@@H](C)O)C(C)C [compound 132] (Ac-WVTH[Cit]LAGLLS[Cit]SGGVV[hArg]KNFV[Oic]TDVG[Oic]FA[2Nal]-NH2)
3.22 nM | CC(=O)N[C@@H](Cc1c[nH]c2ccccc12)C(=O)N[C@H](C(=O)N[C@H](C(=O)N[C@@H](Cc1c[nH]cn1)C(=O)N[C@@H](CCCNC(N)=O)C(=O)N[C@@H](CC(C)C)C(=O)N[C@@H](C)C(=O)NCC(=O)N[C@@H](CC(C)C)C(=O)N[C@@H](CC(C)C)C(=O)N[C@@H](CO)C(=O)N[C@@H](CCCNC(N)=O)C(=O)N[C@@H](CO)C(=O)NCC(=O)NCC(=O)N[C@H](C(=O)N[C@H](C(=O)N[C@@H](CCCCNC(=N)N)C(=O)N[C@@H](CCCCN)C(=O)N[C@@H](CC(N)=O)C(=O)N[C@@H](Cc1ccccc1)C(=O)N[C@H](C(=O)N1[C@H](C(=O)N[C@H](C(=O)N[C@@H](CC(=O)O)C(=O)N[C@H](C(=O)NCC(=O)N2CCC[C@H]2C(=O)N[C@@H](Cc2ccccc2)C(=O)N[C@@H](C)C(=O)N[C@@H](Cc2ccc3ccccc3c2)C(N)=O)C(C)C)[C@@H](C)O)C[C@@H]2CCCC[C@@H]21)C(C)C)C(C)C)C(C)C)[C@@H](C)O)C(C)C [compound 135] (Ac-WVTH[Cit]LAGLLS[Cit]SGGVV[hArg]KNFV[Oic]TDVGPFA[2Nal]-NH2)

Same assay, conditions: Table 2C; unconjugated peptide; read-out: Peptide IC50

IC50 | Compound
1.15 nM | Ac-WVTHRLAGLLSRSGGVVRKNFVPTDVGSKAF-NH2 [compound 915]
2.24 nM | CC(=O)N[C@@H](Cc1c[nH]c2ccccc12)C(=O)N[C@H](C(=O)N[C@H](C(=O)N[C@@H](Cc1c[nH]cn1)C(=O)N[C@@H](CCCNC(N)=O)C(=O)N[C@@H](CC(C)C)C(=O)N[C@@H](C)C(=O)NCC(=O)N[C@@H](CC(C)C)C(=O)N[C@@H](CC(C)C)C(=O)N[C@@H](CO)C(=O)N[C@@H](CCCNC(N)=O)C(=O)N[C@@H](CO)C(=O)NCC(=O)NCC(=O)N[C@H](C(=O)N[C@H](C(=O)N[C@@H](CCCNC(=N)N)C(=O)N[C@@H](CCCCN)C(=O)N[C@@H](CC(N)=O)C(=O)N[C@@H](Cc1ccccc1)C(=O)N[C@H](C(=O)N1CCC[C@H]1C(=O)N[C@H](C(=O)N[C@@H](CC(=O)O)C(=O)N[C@H](C(=O)NCC(=O)N1CCC[C@H]1C(=O)N[C@@H](Cc1ccccc1)C(=O)N[C@@H](C)C(=O)N[C@@H](Cc1ccc(I)cc1)C(N)=O)C(C)C)[C@@H](C)O)C(C)C)C(C)C)C(C)C)[C@@H](C)O)C(C)C [compound 923]
1.16 nM | CC(=O)N[C@@H](Cc1c[nH]c2ccccc12)C(=O)N[C@H](C(=O)N[C@H](C(=O)N[C@@H](Cc1c[nH]cn1)C(=O)N[C@@H](CCCNC(N)=O)C(=O)N[C@@H](CC(C)C)C(=O)N[C@@H](C)C(=O)NCC(=O)N[C@@H](CC(C)C)C(=O)N[C@@H](CC(C)C)C(=O)N[C@@H](CO)C(=O)N[C@@H](CCCNC(N)=O)C(=O)N[C@@H](CO)C(=O)NCC(=O)NCC(=O)N[C@H](C(=O)N[C@H](C(=O)N[C@@H](CCCCNC(=N)N)C(=O)N[C@@H](CCCCN)C(=O)N[C@@H](CC(N)=O)C(=O)N[C@@H](Cc1ccc(I)cc1)C(=O)N[C@H](C(=O)N1CCC[C@H]1C(=O)N[C@H](C(=O)N[C@@H](CC(=O)O)C(=O)N[C@H](C(=O)NCC(=O)N1CCC[C@H]1C(=O)N[C@@H](Cc1ccc(I)cc1)C(=O)N[C@@H](C)C(=O)N[C@@H](Cc1ccccc1)C(N)=O)C(C)C)[C@@H](C)O)C(C)C)C(C)C)C(C)C)[C@@H](C)O)C(C)C [compound 928]
0.88 nM | CC(=O)N[C@@H](Cc1c[nH]c2ccccc12)C(=O)N[C@H](C(=O)N[C@H](C(=O)N[C@@H](Cc1c[nH]cn1)C(=O)N[C@@H](CCCCNC(=N)N)C(=O)N[C@@H](CC(C)C)C(=O)N[C@@H](C)C(=O)NCC(=O)N[C@@H](CC(C)C)C(=O)N[C@@H](CC(C)C)C(=O)N[C@@H](CO)C(=O)N[C@@H](CCCNC(N)=O)C(=O)N[C@@H](CO)C(=O)NCC(=O)NCC(=O)N[C@H](C(=O)N[C@H](C(=O)N[C@@H](CCCCNC(=N)N)C(=O)N[C@@H](CCCCN)C(=O)N[C@@H](CC(N)=O)C(=O)N[C@@H](Cc1ccccc1)C(=O)N[C@H](C(=O)N1CCC[C@H]1C(=O)N[C@H](C(=O)N[C@@H](CC(=O)O)C(=O)N[C@H](C(=O)NCC(=O)N1CCC[C@H]1C(=O)N[C@@H](Cc1ccc2ccccc2c1)C(=O)N[C@@H](C)C(=O)N[C@@H](Cc1ccccc1)C(N)=O)C(C)C)[C@@H](C)O)C(C)C)C(C)C)C(C)C)[C@@H](C)O)C(C)C [compound 926] (Ac-WVTH[hArg]LAGLLS[Cit]SGGVV[hArg]KNFVPTDVGP[2Nal]AF-NH2)

Same assay, conditions: Table 2D; read-out: IC50

IC50 | Compound
4.09 nM | 766 (Ac-WVTHRLAGLLSRSGGVVRC(20 kDa MeO‑PEG)NFVPTDVGPFAF-NH2) [compound 766]
1.27 nM | Ac-WVTHRLAGLLSRPGGVVRKNFVPTDVGPFAF-NH2 [compound 854]
